{"source": "patent US8568699B2", "about": "“Soft anticholinergic zwitterions” (priority 2005, dated 2013)", "key": {"[1]": {"system": "electrically stimulated guinea pig tracheal strips", "type": "cell-based"}, "[2]": {"target": "T1, cloned human muscarinic receptor subtype M2 (Homo sapiens, UniProt P08172)", "T1 sequence (P08172 1-466)": "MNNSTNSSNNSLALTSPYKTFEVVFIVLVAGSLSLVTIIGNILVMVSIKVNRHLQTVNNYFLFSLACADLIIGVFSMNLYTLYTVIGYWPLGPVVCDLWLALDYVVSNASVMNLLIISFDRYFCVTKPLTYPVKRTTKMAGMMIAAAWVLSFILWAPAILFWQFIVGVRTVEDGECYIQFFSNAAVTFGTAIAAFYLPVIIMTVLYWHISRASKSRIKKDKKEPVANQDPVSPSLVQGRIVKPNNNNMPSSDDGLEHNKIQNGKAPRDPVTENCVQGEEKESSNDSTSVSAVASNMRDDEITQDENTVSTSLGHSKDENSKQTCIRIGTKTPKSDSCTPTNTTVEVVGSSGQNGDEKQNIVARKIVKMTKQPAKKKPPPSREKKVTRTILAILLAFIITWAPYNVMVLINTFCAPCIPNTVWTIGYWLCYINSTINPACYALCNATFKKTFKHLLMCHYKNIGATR", "test": "Receptor binding, N-[3H]-methyl-scopolamine, M2"}, "[3]": {"target": "T2, cloned human muscarinic receptor subtype M1 (Homo sapiens, UniProt P11229)", "T2 sequence (P11229 1-460)": "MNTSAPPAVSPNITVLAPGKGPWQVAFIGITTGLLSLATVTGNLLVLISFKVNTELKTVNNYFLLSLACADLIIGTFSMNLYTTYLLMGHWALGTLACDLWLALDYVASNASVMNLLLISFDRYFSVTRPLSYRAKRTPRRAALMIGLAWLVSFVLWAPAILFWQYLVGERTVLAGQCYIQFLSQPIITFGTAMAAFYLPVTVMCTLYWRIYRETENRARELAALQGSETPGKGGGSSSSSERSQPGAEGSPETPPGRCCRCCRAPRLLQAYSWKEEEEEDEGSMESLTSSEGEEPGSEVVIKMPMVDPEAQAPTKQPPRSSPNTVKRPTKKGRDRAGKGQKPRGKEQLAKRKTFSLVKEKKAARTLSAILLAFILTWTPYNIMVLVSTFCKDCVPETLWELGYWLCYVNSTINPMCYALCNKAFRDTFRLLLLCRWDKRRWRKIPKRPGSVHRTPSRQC", "test": "Receptor binding, N-[3H]-methyl-scopolamine, M1", "settings": "numbers in parentheses"}, "[4]": {"target": "T3, cloned human muscarinic receptor subtype M3 (Homo sapiens, UniProt P20309)", "T3 construct": "purchased Applied Cell Science Inc. (Rockville, Md.)", "T3 sequence (P20309 whole entry)": "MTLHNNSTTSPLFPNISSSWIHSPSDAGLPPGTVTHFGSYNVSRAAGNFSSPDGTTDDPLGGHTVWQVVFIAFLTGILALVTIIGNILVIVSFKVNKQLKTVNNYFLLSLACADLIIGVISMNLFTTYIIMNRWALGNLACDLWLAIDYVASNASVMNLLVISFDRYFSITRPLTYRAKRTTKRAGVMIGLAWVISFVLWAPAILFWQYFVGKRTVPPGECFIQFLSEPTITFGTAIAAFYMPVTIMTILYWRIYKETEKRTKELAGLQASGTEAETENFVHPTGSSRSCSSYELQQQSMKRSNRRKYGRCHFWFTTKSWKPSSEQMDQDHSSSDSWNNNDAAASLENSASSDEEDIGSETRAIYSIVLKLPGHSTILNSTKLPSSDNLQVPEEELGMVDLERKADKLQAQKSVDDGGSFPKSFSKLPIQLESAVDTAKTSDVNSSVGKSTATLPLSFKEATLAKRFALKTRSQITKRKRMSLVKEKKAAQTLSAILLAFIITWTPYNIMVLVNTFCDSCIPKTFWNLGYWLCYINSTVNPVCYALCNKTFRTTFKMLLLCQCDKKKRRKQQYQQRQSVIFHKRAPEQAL", "test": "Receptor binding, N-[3H]-methyl-scopolamine, M3", "settings": "for M3 Hill slope: numbers in parentheses"}, "[5]": {"target": "T4, cloned human muscarinic receptor subtype M4 (Homo sapiens, UniProt P08173)", "T4 construct": "purchased Applied Cell Science Inc. (Rockville, Md.)", "T4 sequence (P08173 1-479)": "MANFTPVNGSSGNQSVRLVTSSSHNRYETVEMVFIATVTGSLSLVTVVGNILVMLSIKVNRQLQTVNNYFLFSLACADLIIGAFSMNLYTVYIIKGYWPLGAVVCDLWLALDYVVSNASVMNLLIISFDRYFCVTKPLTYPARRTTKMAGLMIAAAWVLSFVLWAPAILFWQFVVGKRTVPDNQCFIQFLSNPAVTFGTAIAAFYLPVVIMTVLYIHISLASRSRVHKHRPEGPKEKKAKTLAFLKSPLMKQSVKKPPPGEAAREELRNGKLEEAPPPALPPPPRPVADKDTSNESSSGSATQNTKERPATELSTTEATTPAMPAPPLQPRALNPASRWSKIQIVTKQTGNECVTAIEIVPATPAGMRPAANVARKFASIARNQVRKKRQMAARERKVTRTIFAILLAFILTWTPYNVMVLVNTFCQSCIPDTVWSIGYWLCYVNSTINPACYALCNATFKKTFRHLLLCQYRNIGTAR", "test": "Receptor binding, N-[3H]-methyl-scopolamine, M4", "settings": "numbers in parentheses"}, "[6]": {"target": "cloned human muscarinic receptors (M1-M4 subtypes)", "test": "Receptor binding, values stated across subtypes M1-M4"}, "[7]": {"system": "muscarinic M3 cholinoceptors (guinea pig tracheal rings)", "type": "cell-based"}, "[8]": {"settings": "electrically stimulated guinea pig tracheal strips"}, "[9]": {"settings": "time from washout to 20% recovery of cholinergic responses"}, "[10]": {"settings": "Table 6, numbers in parentheses"}}, "note": "Where a name gives a salt, the structure may show the parent alone. Read-outs that look alike come from different tables or passages of the source.", "data": [{"smiles": "C[N+]1(C)[C@@H]2C[C@@H](OC(=O)C(O)(c3cccs3)c3cccs3)C[C@H]1[C@@H]1O[C@@H]12", "note": "[Tiotropium]", "values": [{"measurement": "t1/5 offset", "setting": "[1]", "result": ">360", "unit": "min"}, {"measurement": "t1/5 onset", "setting": "[1]", "result": 8.0, "unit": "min"}]}, {"smiles": "C[N+]1(CC(=O)[O-])[C@@H]2C[C@@H](OC(=O)C(O)(c3cccs3)c3cccs3)C[C@H]1[C@@H]1O[C@@H]12", "note": "(stereo partly drawn) [Compound (aa), 6β,7β-epoxy-3β-hydroxy-8-carboxymethyl-8-methyl-1αH,5αH-tropanium, di-2-thienylglycolate inner salt]", "values": [{"measurement": "t1/5 onset", "setting": "[1]; [8]", "result": 0.9, "unit": "min"}, {"measurement": "t1/5 offset", "setting": "[1]; [9]", "result": 27, "unit": "min"}]}, {"smiles": "C[N+]1(C)[C@@H]2C[C@@H](OC(=O)[C@H](CO)c3ccccc3)C[C@H]1[C@@H]1O[C@@H]12", "note": "[scopolamine methyl bromide, scopolamine methylbromide]", "values": [{"measurement": "M2 Hill slope", "setting": "[2]", "result": "(1.02 ± 0.02)"}]}, {"smiles": "CCOC(=O)C[N+]1(C)CC[C@H](OC(=O)[C@](O)(c2ccccc2)C2CCCC2)C1", "note": "(mixture of isomers) [Compound (j), (2R,3′S) 3(2-Cyclopentyl-2-phenyl-2-hydroxyacetoxy)-1-(ethoxycarbonylmethyl)-1-methylpyrrolidinium bromide]", "values": [{"measurement": "M1 Hill slope", "setting": "[3]; Table 6", "result": "(1.21 ± 0.33)"}, {"measurement": "M2 Hill slope", "setting": "[2]; [10]", "result": "(1.27 ± 0.11)"}, {"measurement": "M3/M2 muscarinic-receptor subtype-selectivity", "setting": "[4]; M3 affinity relative to M2 affinity", "result": "2.8±0.8", "unit": "times"}, {"measurement": "Selectivity M3/M2 (M3/M2 affinity ratio)", "setting": "[4]; Table 6", "result": "2.8 ± 0.8", "unit": "times"}, {"measurement": "M3 Hill slope", "setting": "[4]; Table 6", "result": "(1.33 ± 0.16)"}, {"measurement": "M4 Hill slope", "setting": "[5]; Table 6", "result": "(1.15 ± 0.03)"}, {"measurement": "pKi (range over M1-M4)", "setting": "[6]", "result": "8.2-8.7"}]}, {"smiles": "CN1[C@@H]2CC[C@H]1C[C@@H](OC(=O)C(CO)c1ccccc1)C2", "note": "(stereo partly shown) [Atropine]", "values": [{"measurement": "t1/5 offset", "setting": "[1]", "result": 10, "unit": "min"}, {"measurement": "t1/5 onset", "setting": "[1]", "result": 2.5, "unit": "min"}]}, {"smiles": "CCOC(=O)C[N+]1(C)[C@@H]2C[C@@H](OC(=O)C(O)(c3cccs3)c3cccs3)C[C@H]1[C@@H]1O[C@@H]12", "note": "(stereo partly drawn) [Compound (w), 6β,7β-epoxy-3β-hydroxy-8-ethoxycarbonylmethyl-8-methyl-1αH,5αH-tropanium bromide, di-2-thienylglycolate]", "values": [{"measurement": "pA2", "setting": "[7]; antagonism against carbachol, isolated guinea pig tracheal rings, four animals", "result": 8.82}, {"measurement": "t1/5 onset", "setting": "[1]; [8]", "result": 0.6, "unit": "min"}, {"measurement": "t1/5 offset", "setting": "[1]; [9]", "result": 60, "unit": "min"}]}, {"smiles": "C[N+]1(C)CCC(OC(=O)C(O)(c2ccccc2)C2CCCC2)C1", "note": "(mixture of isomers) [glycopyrrolate, glycopyrronium bromide]", "values": [{"measurement": "M1 Hill slope", "setting": "[3]; Table 1", "result": "(1.37 ± 0.20)"}, {"measurement": "M1 Hill slope", "setting": "[3]; Table 6", "result": "(1.37 ± 0.20)"}, {"measurement": "M2 Hill slope", "setting": "[2]; Table 1, numbers in parentheses", "result": "(0.99 ± 0.11)"}, {"measurement": "M2 Hill slope", "setting": "[2]; [10]", "result": "(0.99 ± 0.11)"}, {"measurement": "M3 Hill slope", "setting": "[4]; Table 1", "result": "(1.14 ± 0.25)"}, {"measurement": "M3 Hill slope", "setting": "[4]; Table 6", "result": "(1.14 ± 0.25)"}, {"measurement": "M4 Hill slope", "setting": "[5]; Table 1", "result": "(1.02 ± 0.01)"}, {"measurement": "M4 Hill slope", "setting": "[5]; Table 6", "result": "(1.02 ± 0.01)"}, {"measurement": "pKi (range over M1-M4)", "setting": "[6]", "result": "8.7-9.9"}]}, {"smiles": "CC(C)[N+]1(C)[C@@H]2CC[C@H]1CC(OC(=O)C(CO)c1ccccc1)C2.[Br-]", "note": "(stereo partly shown) [Ipratropium Br, ipratropium bromide]", "values": [{"measurement": "pA2", "setting": "[7]", "result": 9.18}, {"measurement": "t1/5 onset", "setting": "[1]", "result": 3.0, "unit": "min"}]}]}
